According to ChEMBL document CHEMBL3352773, “Synthesis and evaluation of the 2,4-diaminoquinazoline series as anti-tubercular agents” (Bioorg Med Chem, 2014):
In brackets after ≈: the same amount, converted by molar mass. Activity calls are given as the source filed them. No cut-off for these calls is given here.

Assays:
[1] = tested on: Mycobacterium tuberculosis; assay: Antituberculosis activity against Mycobacterium tuberculosis H37Rv assessed as complete growth inhibition at 20 uM after 5 days; assay type: functional; conditions: 120 h
[2] = tested on: Mycobacterium tuberculosis; assay: Antituberculosis activity against Mycobacterium tuberculosis H37Rv assessed as complete growth inhibition after 5 days; assay type: functional; conditions: 120 h
Rattus norvegicus [3] = assay: AUC in Sprague-Dawley rat at 10 mg/kg, po after 24 hrs; assay type: ADME, organism-based, Plasma; set-up: time < 24 hr, dose 10 mg/kg, route oral; conditions: in vivo
[4] = Oral bioavailability in Sprague-Dawley rat at 10 mg/kg after 24 hrs; assay type: ADME, organism-based; conditions: in vivo
[5] = tested on: Mycobacterium tuberculosis; assay: Antituberculosis activity against Mycobacterium tuberculosis H37Rv assessed as complete growth inhibition after 5 days using liquid media; assay type: functional; conditions: 120 h
Rattus norvegicus [6] = assay: Volume of distribution at steady state in Sprague-Dawley rat at 10 mg/kg, po after 24 hrs; assay type: ADME, organism-based; set-up: dose 10 mg/kg, route oral; conditions: in vivo
[7] = tested on: Mycobacterium tuberculosis; assay: Antituberculosis activity against Mycobacterium tuberculosis H37Rv assessed as complete growth inhibition after 5 days using solid media by serial proportion method; assay type: functional; conditions: 120 h
[8] = tested on: Mycobacterium tuberculosis; assay: Antituberculosis activity against Mycobacterium tuberculosis H37Rv grown in liquid media using glucose as carbon source assessed as growth inhibition; assay type: functional
[9] = tested on: Mycobacterium tuberculosis; assay: Bactericidal activity against Mycobacterium tuberculosis H37Rv under non-replicating condition assessed as reduction in viability at 124 uM measured over 7 days by time kill kinetic study relative to control; assay type: functional
[10] = tested on: Mycobacterium tuberculosis; assay: Antituberculosis activity against Mycobacterium tuberculosis H37Rv assessed as complete growth inhibition at 56 uM in absence of hemin; assay type: functional, organism-based
[11] = tested on: Mycobacterium tuberculosis; assay: Antituberculosis activity against Mycobacterium tuberculosis H37Rv grown in solid media assessed as growth inhibition by serial proportion method; assay type: functional
[12] = tested on: Mycobacterium tuberculosis; assay: Bactericidal activity against Mycobacterium tuberculosis H37Rv under aerobic and replicating condition assessed as reduction in viability at 124 uM measured over 7 days by time kill kinetic study relative to control; assay type: functional
[13] = tested on: Mycobacterium tuberculosis; assay: Antituberculosis activity against Mycobacterium tuberculosis H37Rv assessed as complete growth inhibition at 56 uM in presence of hemin; assay type: functional, organism-based
[14] = tested on: Mycobacterium tuberculosis; assay: Antituberculosis activity against Mycobacterium tuberculosis H37Rv grown in liquid media using palmitate as carbon source assessed as growth inhibition; assay type: functional

Structure (SMILES)	inhibition at 20 µM [1]	MIC99 [2]	other results
COc1ccc2c(NCc3ccc(F)cc3)nc(N3CCCCC3)nc2c1	74%		
O=C(O)CNC1CCN(c2nc(NCc3ccc(F)cc3)c3ccccc3n2)CC1	< 30%		
Fc1ccc(CNc2cc(N3CCCCC3)nc3ccnn23)cc1	< 30%		
FC(F)(F)Oc1ccc(CNc2nc(N3CCCCC3)nc3ccccc23)cc1	95%		
Fc1ccc(Nc2nc(N3CCCCC3)nc3ccccc23)cc1	< 30%	39 µM (≈ 12.6 µg/mL)	
Fc1ccc(CNc2nc(N3CCCCC3)nc3cc(Cl)ccc23)cc1	51%		
Cc1ccc2nc(N3CCCCC3)nc(NCc3ccc(F)cc3)c2c1	99%		
c1ccc2c(N3CCCCC3)nc(N3CCCCC3)nc2c1	< 30%		
Fc1ccc(CNc2nc(N3CCCCC3)nc3cnccc23)cc1	59%	30 µM (≈ 10.1 µg/mL)	
O=[N+]([O-])c1cccc2c(NCc3ccc(F)cc3)nc(N3CCCCC3)nc12	< 30%		
Nc1ccc(N2CCN(c3nc(NCc4ccc(F)cc4)c4ccccc4n3)CC2)cc1	94%		
CN(C)C1CCN(c2nc(NCc3ccc(F)cc3)c3ccccc3n2)CC1	< 30%		
CC1CCN(c2nc(NCc3ccc(F)cc3)c3ccccc3n2)CC1	97%		
COc1cccc2c(NCc3ccc(F)cc3)nc(N3CCCCC3)nc12	83%		
Fc1ccc(CNc2nc(N3CCCCC3)nc3ncccc23)cc1	37%	74 µM (≈ 25 µg/mL)	
Clc1ccc(CNc2nc(N3CCCCC3)nc3ccccc23)cc1	99%		
COc1cc2nc(N3CCCCC3)nc(NCc3ccc(F)cc3)c2cc1OC	92%	25 µM (≈ 9.91 µg/mL)	
CNc1nc(NCc2ccc(F)cc2)c2ccccc2n1	44%	35 µM (≈ 9.88 µg/mL)	
Fc1ccc(COc2nc(N3CCCCC3)nc3ccccc23)cc1	< 30%	296 µM (≈ 99.9 µg/mL)	
CC(C)CNc1nc(N2CCCCC2)nc2ccccc12	37%	25 µM (≈ 7.11 µg/mL)	
Fc1ccc(CSc2nc(N3CCCCC3)nc3ccccc23)cc1	< 30%	282 µM (≈ 99.7 µg/mL)	
Fc1ccc(CNc2nc(N3CCCCC3)nc3cccc(F)c23)cc1	< 30%		

Structure (SMILES)	inhibition at 20 µM [1]	MIC99 [2]	other results
OCCN(CCO)c1nc(NCc2ccc(F)cc2)c2ccccc2n1	< 30%		
Fc1ccc(CNc2nc(N3CCCCC3)nc3ccc(Cl)cc23)cc1	49%		
Fc1ccc(CNc2nc(C(F)(F)F)nc3ccccc23)cc1	< 30%		
CN(C)c1nc(NCc2ccc(F)cc2)c2ccccc2n1	40%	34 µM (≈ 10.1 µg/mL)	
O=C(O)C(Nc1cc(N2CCCCC2)nc2ccccc12)c1ccc(F)cc1 (stereo not given)	< 30%		
Fc1ccc(CNc2nc(N3CCCCC3)nc3ccccc23)cc1F	96%		
Cc1cccc(CNc2nc(N3CCCCC3)nc3ccccc23)c1	99%		
CNC1CCN(c2nc(NCc3ccc(F)cc3)c3ccccc3n2)CC1	33%		
Fc1ccc(CNc2nc(N3CCCCC3)nc3sccc23)cc1		73 µM (≈ 25 µg/mL)	
Fc1ccc(CNc2nc(N3CCNCC3)nc3ccccc23)cc1	< 30%	148 µM (≈ 49.9 µg/mL)	
Fc1ccc(Cn2cnc3c(N4CCCCC4)nc4ccccc4c32)cc1	98%		AUC (Rattus norvegicus [3]): 0.0274 µg·h/mL; bioavailability [4]: 3.4%; MIC99 [5]: 13.8 µM (≈ 4.97 µg/mL); Vdss (Rattus norvegicus [6]): 14.2 L/kg; MIC99 [7]: 27.7 µM (≈ 9.98 µg/mL)
Cc1nc(N2CCCCC2)nc(NCc2ccc(F)cc2)c1C	< 30%		
Fc1ccc(CNc2nc(CN3CCCCC3)nc3ccccc23)cc1	< 30%	29 µM (≈ 10.2 µg/mL)	
CO[C@H]1/C=C/O[C@@]2(C)Oc3c(C)c(O)c4c(O)c(c(/C=N/N5CCN(C)CC5)c(O)c4c3C2=O)NC(=O)/C(C)=C\C=C\[C@H](C)[C@H](O)[C@@H](C)[C@@H](O)[C@@H](C)[C@H](OC(C)=O)[C@@H]1C [RIFAMPIN]	100%		MIC99 [5]: 0.004 µM (≈ 0.00329 µg/mL); MIC99 [7]: 0.013 µM (≈ 0.0107 µg/mL)
FC(F)(F)c1ccc(CCNc2nc(N3CCCCC3)nc3ccccc23)cc1	97%	5.7 µM (≈ 2.28 µg/mL)	
Fc1ccc(CNc2nc(-c3ccccc3)nc3ccccc23)cc1	< 30%	76 µM (≈ 25 µg/mL)	
Fc1ccc(CNc2nc(N3CCCCC3)nc3ccccc23)cc1	97%	7.4 µM (≈ 2.49 µg/mL)	
Fc1ccc(CNc2nc(N3CCCCC3)nc3ccsc23)cc1	< 30%	292 µM (≈ 100 µg/mL)	
O=C(O)C1CCN(c2nc(NCc3ccc(F)cc3)c3ccccc3n2)CC1	< 30%		
Cc1cccc2nc(N3CCCCC3)nc(NCc3ccc(F)cc3)c12	98%		
NC1CCN(c2nc(NCc3ccc(F)cc3)c3ccccc3n2)CC1	< 30%		
c1ccc(CNc2nc(N3CCCCC3)nc3ccccc23)cc1	96%	9.2 µM (≈ 2.93 µg/mL)	

Structure (SMILES)	inhibition at 20 µM [1]	MIC99 [2]	other results
Cc1cc(NCc2ccc(F)cc2)nc(N2CCCCC2)n1	< 30%	83 µM (≈ 24.9 µg/mL)	
FC(F)(F)c1ccc(CNc2nc(N3CCCCC3)nc3ccccc23)cc1	99%	6.6 µM (≈ 2.55 µg/mL)	MIC99 [8]: 28 µM (≈ 10.8 µg/mL); fold change (FC) [9]: 3; Activity [10]: Active; MIC99 [11]: 16 µM (≈ 6.18 µg/mL); fold change (FC) [12]: 4; Activity [13]: Active; MIC99 [14]: 28 µM (≈ 10.8 µg/mL)
CNc1nc(N2CCCCC2)nc2ccccc12	< 30%	206 µM (≈ 49.9 µg/mL)	
O=C(O)CC1CCCCN1c1nc(NCc2ccc(F)cc2)c2ccccc2n1 (stereo not given)	< 30%		
Fc1ccccc1CNc1nc(N2CCCCC2)nc2ccccc12	97%		
OCC1CCN(c2nc(NCc3ccc(F)cc3)c3ccccc3n2)CC1	< 30%		
Fc1ccc(CNc2nc(N3CCCCC3)nc3ccccc23)c(F)c1	97%		
Fc1ccc(CNc2cc(N3CCCCC3)nc3ccccc23)cc1	98%		
c1ccc2nc(N3CCCCC3)ncc2c1	< 30%	469 µM (≈ 100 µg/mL)	
Nc1nc(NCc2ccc(F)cc2)c2ccccc2n1	< 30%	93 µM (≈ 25 µg/mL)	
Clc1ccc(CNc2nc(N3CCCCC3)nc3ccccc23)c(Cl)c1	98%		
c1ccc2c(CNc3nc(N4CCCCC4)nc4ccccc34)cccc2c1	97%		
Cn1cnc2c(NCc3ccc(F)cc3)nc(N3CCCCC3)nc21	< 30%		
CC1CC(C)CN(c2nc(NCc3ccc(F)cc3)c3ccccc3n2)C1 (stereo not given)	< 30%		
Fc1ccc(CNc2nc(N3CCCCC3)nc3cccc(Cl)c23)cc1	< 30%		
Fc1ccc(CNc2nc(N3CCCCC3)nc3cccnc23)cc1	< 30%	37 µM (≈ 12.5 µg/mL)	
Clc1ccc(CNc2nc(N3CCCCC3)nc3ccccc23)cc1Cl	98%		
Fc1ccc(CNc2cc(Cc3ccccc3)nc(N3CCCCC3)n2)cc1	84%	27 µM (≈ 10.2 µg/mL)	
Fc1ccc2c(c1)CCN(c1nc(N3CCCCC3)nc3ccccc13)C2	94%		
Cn1ccc2c(NCc3ccc(F)cc3)nc(N3CCCCC3)nc21	< 30%		
Ic1cccc(CNc2nc(N3CCCCC3)nc3ccccc23)c1	98%		
Cc1nc(NCc2ccc(F)cc2)c2ccccc2n1	< 30%	94 µM (≈ 25.1 µg/mL)	

Structure (SMILES)	inhibition at 20 µM [1]	MIC99 [2]	other results
Fc1ccc(CNc2nc(N3Cc4ccccc4C3)nc3ccccc23)cc1	78%		
c1ccc2c(NCC3CCCCC3)nc(N3CCCCC3)nc2c1	99%		
COc1ccc(CNc2nc(N3CCCCC3)nc3ccccc23)cc1Cl	98%		
Nc1ccc(CNc2nc(N3CCCCC3)nc3ccccc23)cc1	< 30%		
Fc1ccc(CNc2nc(N3CCCCC3)nc3c(Cl)cccc23)cc1	< 30%		
COc1ccc2nc(N3CCCCC3)nc(NCc3ccc(F)cc3)c2c1	97%		
Clc1ccc(Cl)c(CNc2nc(N3CCCCC3)nc3ccccc23)c1	97%		
Fc1ccc(CNc2nc(N3CCCC3)nc3ccccc23)cc1	97%	31 µM (≈ 9.99 µg/mL)	
COc1ccc(CNc2nc(N3CCCCC3)nc3ccccc23)cc1	97%		
Fc1ccc(CNc2nc(N3CCCCC3)nc3[nH]ccc23)cc1	< 30%		
OC1CCN(c2nc(NCc3ccc(F)cc3)c3ccccc3n2)CC1	< 30%		
Cc1cnc(N2CCCCC2)nc1NCc1ccc(F)cc1	< 30%	83 µM (≈ 24.9 µg/mL)	
Cc1ccc(CNc2nc(N3CCCCC3)nc3ccccc23)cc1	98%		
Fc1ccc(CCc2nc(N3CCCCC3)nc3ccccc23)cc1	< 30%		
Fc1ccc(CNc2cc(N3CCCCC3)nc3ncnn23)cc1	< 30%		
Fc1ccc(CNc2nc(C3CCCCC3)nc3ccccc23)cc1	47%	15 µM (≈ 5.03 µg/mL)	
Fc1ccc(CNc2nc(N3CCCCC3)ncc2Cc2ccccc2)cc1	68%	26 µM (≈ 9.79 µg/mL)	
Fc1ccc(CNc2ncnc3ccccc23)cc1	< 30%	99 µM (≈ 25.1 µg/mL)	
Fc1ccc(CNc2nc(N3CCCCC3)nc3[nH]cnc23)cc1	< 30%		
Fc1cccc(CNc2nc(N3CCCCC3)nc3ccccc23)c1	98%		
OCC(Nc1cc(N2CCCCC2)nc2ccccc12)c1ccc(F)cc1 (stereo not given)	55%		
